# Laboratory results: PubChem BioAssay (NCI)
#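 In this assay, cells in 96-well plates receive the compound at five concentrations for 48 hours. Endpoints are linearly interpolated between the surrounding concentrations. Definition used: TGI = concentration required for complete inhibition of growth.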
# Tests used:
# Assay in all cases: growth of human tumour cells (NCI), 48 h
# [1] = test system: 786-0 renal
# [2] = test system: A498 renal
# [3] = test system: A549 NSCLC
# [4] = test system: ACHN renal
# [5] = test system: CAKI-1 renal
# [6] = test system: CCRF-CEM leukemia
# [7] = test system: COLO 205 colon
# [8] = test system: DLD-1 colon
# [9] = test system: DMS 114 small cell lung
# [10] = test system: DMS 273 small cell lung
# [11] = test system: EKVX NSCLC
# [12] = test system: HCT-116 colon
# [13] = test system: HCT-15 colon
# [14] = test system: HL-60(TB) leukemia
# [15] = test system: HOP-18 NSCLC
# [16] = test system: HOP-62 NSCLC
# [17] = test system: HOP-92 NSCLC
# [18] = test system: HT29 colon
# [19] = test system: IGROV1 ovarian
# [20] = test system: K-562 leukemia
# [21] = test system: KM12 colon
# [22] = test system: KM20L2 colon
# [23] = test system: LOX IMVI melanoma
# [24] = test system: LXFL 529 NSCLC
# [25] = test system: M14 melanoma
# [26] = test system: MALME-3M melanoma
# [27] = test system: MOLT-4 leukemia
# [28] = test system: NCI-H226 lung
# [29] = test system: NCI-H23 lung
# [30] = test system: NCI-H460 lung
# [31] = test system: NCI-H522 lung
# [32] = test system: OVCAR-3 ovarian
# [33] = test system: OVCAR-4 ovarian
# [34] = test system: OVCAR-5 ovarian
# [35] = test system: OVCAR-8 ovarian
# [36] = test system: RPMI-8226 leukemia
# [37] = test system: RXF 393 renal
# [38] = test system: RXF-631 renal
# [39] = test system: SF-268 CNS
# [40] = test system: SF-295 CNS
# [41] = test system: SF-539 CNS
# [42] = test system: SK-MEL-2 melanoma
# [43] = test system: SK-MEL-28 melanoma
# [44] = test system: SK-MEL-5 melanoma
# [45] = test system: SK-OV-3 ovarian
# [46] = test system: SN12C renal
# [47] = test system: SNB-19 CNS
# [48] = test system: SNB-75 CNS
# [49] = test system: SNB-78 CNS
# [50] = test system: SR leukemia
# [51] = test system: SW-620 colon
# [52] = test system: TK-10 renal
# [53] = test system: U251 CNS
# [54] = test system: UACC-257 melanoma
# [55] = test system: UACC-62 melanoma
# [56] = test system: UO-31 renal
# [57] = test system: BT-549 breast
# [58] = test system: DU-145 prostate
# [59] = test system: HCC-2998 colon
# [60] = test system: HS 578T breast
# [61] = test system: M19-MEL melanoma
# [62] = test system: MCF7 breast
# [63] = test system: MDA-MB-231 breast
# [64] = test system: MDA-MB-435
# [65] = test system: MDA-N
# [66] = test system: NCI/ADR-RES ovarian
# [67] = test system: PC-3 prostate
# [68] = test system: T-47D breast
# [69] = test system: XF 498 CNS
smiles,measurement,setting,value
Cc1cc2occ(-c3ccc(Cl)cc3)c2c(=O)o1,TGI,[1],> 100 µM
same,TGI,[2],> 100 µM
same,TGI,[3],> 100 µM
same,TGI,[4],> 100 µM
same,TGI,[5],> 100 µM
same,TGI,[6],> 100 µM
same,TGI,[7],> 100 µM
same,TGI,[8],> 100 µM
same,TGI,[9],> 100 µM
same,TGI,[10],> 100 µM
same,TGI,[11],> 100 µM
same,TGI,[12],> 100 µM
same,TGI,[13],> 100 µM
same,TGI,[14],> 100 µM
same,TGI,[15],> 100 µM
same,TGI,[16],> 100 µM
same,TGI,[17],> 100 µM
same,TGI,[18],> 100 µM
same,TGI,[19],> 100 µM
same,TGI,[20],> 100 µM
same,TGI,[21],> 100 µM
same,TGI,[22],> 100 µM
same,TGI,[23],> 100 µM
same,TGI,[24],> 100 µM
same,TGI,[25],> 100 µM
same,TGI,[26],> 100 µM
same,TGI,[27],> 100 µM
same,TGI,[28],> 100 µM
same,TGI,[29],> 100 µM
same,TGI,[30],> 100 µM
same,TGI,[31],> 100 µM
same,TGI,[32],> 100 µM
same,TGI,[33],> 100 µM
same,TGI,[34],> 100 µM
same,TGI,[35],> 100 µM
same,TGI,[36],> 100 µM
same,TGI,[37],> 100 µM
same,TGI,[38],> 100 µM
same,TGI,[39],> 100 µM
same,TGI,[40],> 100 µM
same,TGI,[41],> 100 µM
same,TGI,[42],> 100 µM
same,TGI,[43],> 100 µM
same,TGI,[44],> 100 µM
same,TGI,[45],> 100 µM
same,TGI,[46],> 100 µM
same,TGI,[47],> 100 µM
same,TGI,[48],> 100 µM
same,TGI,[49],> 100 µM
same,TGI,[50],> 100 µM
same,TGI,[51],> 100 µM
same,TGI,[52],> 100 µM
same,TGI,[53],> 100 µM
same,TGI,[54],> 100 µM
same,TGI,[55],> 100 µM
same,TGI,[56],> 100 µM
C/C(=N\Nc1ccccc1)C(CN(C)C)C(c1ccccc1)c1c(O)c2ccccc2oc1=O (stereo not given),TGI,[1],> 100 µM
same,TGI,[2],> 100 µM
same,TGI,[3],> 100 µM
same,TGI,[4],> 100 µM
same,TGI,[57],> 100 µM
same,TGI,[5],> 100 µM
same,TGI,[6],> 100 µM
same,TGI,[7],> 100 µM
same,TGI,[9],> 100 µM
same,TGI,[58],> 100 µM
same,TGI,[11],> 100 µM
same,TGI,[59],> 100 µM
same,TGI,[12],> 100 µM
same,TGI,[13],> 100 µM
same,TGI,[14],> 100 µM
same,TGI,[16],> 100 µM
same,TGI,[17],97 µM
same,TGI,[60],> 100 µM
same,TGI,[18],> 100 µM
same,TGI,[19],> 100 µM
same,TGI,[20],> 100 µM
same,TGI,[21],> 100 µM
same,TGI,[22],> 100 µM
same,TGI,[23],> 100 µM
same,TGI,[24],> 100 µM
same,TGI,[25],> 100 µM
same,TGI,[61],> 100 µM
same,TGI,[26],> 100 µM
same,TGI,[62],> 100 µM
same,TGI,[63],> 100 µM
same,TGI,[64],> 100 µM
same,TGI,[65],> 100 µM
same,TGI,[27],> 100 µM
same,TGI,[28],> 100 µM
same,TGI,[29],> 100 µM
same,TGI,[30],> 100 µM
same,TGI,[31],> 100 µM
same,TGI,[66],> 100 µM
same,TGI,[32],> 100 µM
same,TGI,[33],> 100 µM
same,TGI,[34],> 100 µM
same,TGI,[35],> 100 µM
same,TGI,[67],> 100 µM
same,TGI,[36],> 100 µM
same,TGI,[37],> 100 µM
same,TGI,[38],> 100 µM
same,TGI,[39],> 100 µM
same,TGI,[40],> 100 µM
same,TGI,[41],> 100 µM
same,TGI,[42],> 100 µM
same,TGI,[43],> 100 µM
same,TGI,[44],> 100 µM
same,TGI,[45],> 100 µM
same,TGI,[46],> 100 µM
same,TGI,[47],> 100 µM
same,TGI,[48],> 100 µM
same,TGI,[50],> 100 µM
same,TGI,[51],> 100 µM
same,TGI,[68],> 100 µM
same,TGI,[52],> 100 µM
same,TGI,[53],> 100 µM
same,TGI,[54],> 100 µM
same,TGI,[55],> 100 µM
same,TGI,[56],> 100 µM
O=C1C(c2ccccc2)=C(c2ccccc2)[C@H](c2ccccc2)[C@]1(Cc1nnn(-c2ccc([N+](=O)[O-])cc2)c1N1CCOCC1)c1ccccc1,TGI,[1],> 37.5 µM
same,TGI,[2],> 37.5 µM
same,TGI,[3],> 37.5 µM
same,TGI,[4],> 37.5 µM
same,TGI,[5],> 37.5 µM
same,TGI,[6],> 37.5 µM
same,TGI,[7],> 37.5 µM
same,TGI,[8],> 37.5 µM
same,TGI,[9],> 37.5 µM
same,TGI,[10],> 37.5 µM
same,TGI,[11],> 37.5 µM
same,TGI,[59],> 37.5 µM
same,TGI,[12],> 37.5 µM
same,TGI,[13],> 37.5 µM
same,TGI,[14],> 37.5 µM
same,TGI,[15],> 37.5 µM
same,TGI,[16],> 37.5 µM
same,TGI,[17],2.25 µM
same,TGI,[18],> 37.5 µM
same,TGI,[19],> 37.5 µM
same,TGI,[20],> 37.5 µM
same,TGI,[22],> 37.5 µM
same,TGI,[23],> 37.5 µM
same,TGI,[24],> 37.5 µM
same,TGI,[25],> 37.5 µM
same,TGI,[61],> 37.5 µM
same,TGI,[27],> 37.5 µM
same,TGI,[29],> 37.5 µM
same,TGI,[30],> 37.5 µM
same,TGI,[32],> 37.5 µM
same,TGI,[33],> 37.5 µM
same,TGI,[35],> 37.5 µM
same,TGI,[36],> 37.5 µM
same,TGI,[37],> 37.5 µM
same,TGI,[38],> 37.5 µM
same,TGI,[40],> 37.5 µM
same,TGI,[41],> 37.5 µM
same,TGI,[43],> 37.5 µM
same,TGI,[44],> 37.5 µM
same,TGI,[45],> 37.5 µM
same,TGI,[46],> 37.5 µM
same,TGI,[47],> 37.5 µM
same,TGI,[48],> 37.5 µM
same,TGI,[49],> 37.5 µM
same,TGI,[51],> 37.5 µM
same,TGI,[52],> 37.5 µM
same,TGI,[53],> 37.5 µM
same,TGI,[54],> 37.5 µM
same,TGI,[55],> 37.5 µM
same,TGI,[69],26.5 µM
